Data taken from patent publication US9593144B2, “FPR1 antagonist derivatives and use thereof” (CHANG GUNG UNIVERSITY, priority 2014, dated 2017).
Read-outs that look alike come from different tables or passages of the source. Square brackets hold non-standard residues; d marks the D form. Peptide text beside a SMILES is read from it. * marks the point of attachment. Hydrocinnamoyl = O=C(CCc1ccccc1)*; PhAc = O=C(Cc1ccccc1)*

Legend:
human neutrophils [1] = assay: cells; assay type: cell-based; settings: human neutrophils, fMLP/CB, mean ± SEM, n = 3, read-out: Anti-inflammation O2•− generation (IC50)
Excerpt: Tables 5 and 6 explore whether there is an anti-inflamatory effect in the dipeptide derivatives. Because ferricytochrome c cannot penetrate cell membranes, it reacts with superoxide anion extracellularly. Also, there are absorptive reactions at 550 nm, and differences among the absorptive reactions can be used to evaluate the influence on the release of superoxide anion. The elastase is released by degranulation as the neutrophil is activated. Tables 5 and 6 use the substrate, MeO-Suc-Ala-Ala-Pro-Val-p-nitroanilide, with the specificity for reacting with the elastase so as to evaluate the influence of the candidate compound on the elastase release.
Blood was taken from healthy human donors (20-32 years old) by venipuncture, following a protocol approved by the Institutional Review Board at Chang Gung Memorial Hospital. Neutrophils were isolated by a standard method of dextran sedimentation prior to centrifugation in a Ficoll Hypaque gradient and the hypotonic lysis of erythrocytes.
The evaluation of O2.^− generation was based on the SOD-inhibitable reduction of ferricytochrome c. In brief, after supplementation with 0.5 mg ml^−1 ferricytochrome c and 1 mM Ca^2+, neutrophils were equilibrated at 37° C. for 2 min and incubated with drugs […].

human neutrophils [2] = assay: cells; assay type: cell-based; settings: fMLP/CB, mean ± SEM
Description: Degranulation of azurophilic granules was determined by elastase release as described above. Experiments were performed using MeO-Suc-[…]-nitroanilide as the elastase substrate. […] Results are expressed as the percentage of elastase release in the drug-free control group, DMSO. Tables 5 and 6 explore whether there is an anti-inflamatory effect in the dipeptide derivatives. Because ferricytochrome c cannot penetrate cell membranes, it reacts with superoxide anion extracellularly. Also, there are absorptive reactions at 550 nm, and differences among the absorptive reactions can be used to evaluate the influence on the release of superoxide anion. The elastase is released by degranulation as the neutrophil is activated. Tables 5 and 6 use the substrate, MeO-Suc-[…]-nitroanilide, with the specificity for reacting with the elastase so as to evaluate the influence of the candidate compound on the elastase release. Blood was taken from healthy human donors (20-32 years old) by venipuncture, following a protocol approved by the Institutional Review Board at Chang Gung Memorial Hospital. Neutrophils were isolated by a standard method of dextran sedimentation prior to centrifugation in a Ficoll Hypaque gradient and the hypotonic lysis of erythrocytes. […] The degranulation of azurophilic granules was determined by elastase release as described above. Experiments were performed using MeO-Suc-[…]-nitroanilide as the elastase substrate. Briefly, after supplementation with MeO-Suc-[…]-nitroanilide ([…] neutrophils (6×10^5 ml^-1) were equilibrated at 37° C. for 2 min and incubated with drugs for 5 min. […] The results are expressed as the percentage of elastase release in the drug-free control group.

[3] = Neutrophil, n = 3, Table 1, read-out: Anti-inflammation NE release (IC50)

Row | melting point [°C] | IC50 (human neutrophils [1]; Neutrophil, Table 1) [µM] | IC50 (human neutrophils [2]; [3]) [µM] | IC50 (human neutrophils [1]; Table 3) [µM] | IC50 (human neutrophils [2]; n = 3, Table 3, read-out: Anti-inflammation NE release (IC50)) [µM] | Compound
1 | 182 to 184 | 10.2 ± 4.53 | 5.71 ± 0.39 | – | – | COC(=O)[C@@H](Cc1ccccc1)NC(=O)[C@H](Cc1c[nH]c2ccccc12)NC(=O)Cc1ccccc1 [Compound 8, N—(N-Phenylacetyl-L-tryptophanyl)-D-phenylalanine methyl ester] (PhAc-Trp-[dF]-OMe)
2 | 120 to 122 | – | – | > 30 | > 30 | O=C(N[C@@H](Cc1c[nH]c2ccccc12)C(=O)N[C@@H](CO)Cc1ccccc1)c1ccccc1 [Compound 13b, N—(N-Benzoyl-L-tryptophanyl)-D-phenylalaninol]
3 | 159 to 161 | 10.1 ± 3.05 | 12.5 ± 4.87 | – | – | COC(=O)[C@@H](Cc1ccccc1)NC(=O)[C@H](Cc1c[nH]c2ccccc12)NC(=O)CCc1ccccc1 [Compound 9, N—(N-Phenylpropanoyl-L-tryptophanyl)-D-phenylalanine methyl ester] (Hydrocinnamoyl-Trp-[dF]-OMe)
